# Experiments:
# [1] = Cytotoxicity in mock-infected MT-4 cells (MTT); type: cell-based; conditions: human, OD 540 nm, read-out: CC50 (50% cytotoxic concentration)
# Experimental: (§1) A rapid, sensitive and automated assay procedure was used for the in vitro evaluation of anti-HIV agents. An […] T4-cell line, MT-4, which was previously shown (Koyanagi et al., Int. J. Cancer, 36, 445-451, 1985) to be highly susceptible to and permissive for HIV infection, served as the target cell line. Inhibition of the HIV-induced cytopathic effect was used as the end point. The viability of both HIV- and mock-infected cells was assessed spectrophotometrically via the in situ reduction of 3-(4,5-dimethylthiazol-2-yl)-2,5-diphenyltetrazolium bromide (MTT). The 50% cytotoxic concentration (CC50 in M) was defined as the concentration of compound that reduced the absorbance of the mock-infected control sample by 50%. The percent protection achieved by the compound in HIV-infected cells was calculated by the following formula:
# (§2) [formula] whereby (ODT)HIV is the optical density measured with a given concentration of the test compound in HIV-infected cells; (ODC)HIV is the optical density measured for the control untreated HIV-infected cells; (ODC)MOCK is the optical density measured for the control untreated mock-infected cells; all optical density values were determined at 540 nm. The dose achieving 50% protection according to the above formula was defined as the 50% inhibitory concentration (IC50 in M). The ratio of CC50 to IC50 was defined as the selectivity index (SI).
# [2] = system: resistant mutants of HIV-1 (single and double mutants); assay: Replication inhibiting activity towards resistant mutants of HIV-1; type: cell-based; conditions: single and double mutants of HIV-1
# Experimental: Compound X was also tested for its replication inhibiting activity towards resistant mutants of HIV-1 (single and double mutants).
# HIV = assay: Determination of anti-HIV activity: inhibition of HIV-induced cytopathic effect in MT-4 cells (MTT); type: cell-based, Human Immunodeficiency Virus
# Experimental: as §1, §2
compound,measurement,setting,value
"Cc1cc(/C=C/C#N)cc(C)c1Nc1ccnc(Nc2ccc(C#N)cc2)n1 [Compound X, 4-[[4-[[4-(2-cyanoethenyl)-2,6-dimethylphenyl]amino]-2-pyrimidinyl]amino]benzonitrile (E)]",CC50,[1],10 µM
same,replication inhibiting activity against resistant strains,[2],high activity
same,"SI (selectivity index, ratio of CC50 to IC50)",HIV,"25,119"
